Columns and labels:
Free laccase = target: T1, Free laccase (Cyathus bulleri, UniProt A8W7J6); assay: Laccase assay with inhibitors and ABTS kinetics, free enzyme; assay type: biochemical; conditions: 1 h pre-incubation
T1 sequence (A8W7J6 17-513): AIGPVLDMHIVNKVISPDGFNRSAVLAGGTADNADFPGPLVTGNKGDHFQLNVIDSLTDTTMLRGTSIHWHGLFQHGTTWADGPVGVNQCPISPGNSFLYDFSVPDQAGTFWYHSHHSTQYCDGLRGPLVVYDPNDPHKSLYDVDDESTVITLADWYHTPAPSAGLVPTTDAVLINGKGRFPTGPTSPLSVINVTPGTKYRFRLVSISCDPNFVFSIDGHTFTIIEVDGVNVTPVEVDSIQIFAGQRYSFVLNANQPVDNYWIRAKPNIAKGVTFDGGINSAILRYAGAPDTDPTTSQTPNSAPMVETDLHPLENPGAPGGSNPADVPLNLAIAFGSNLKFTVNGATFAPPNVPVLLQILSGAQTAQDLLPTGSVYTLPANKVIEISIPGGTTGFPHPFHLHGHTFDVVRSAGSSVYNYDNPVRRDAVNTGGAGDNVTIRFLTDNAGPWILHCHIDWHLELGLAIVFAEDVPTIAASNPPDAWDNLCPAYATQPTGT

[1] = target: T2, PVA-nitrate immobilized laccase (Cyathus bulleri, UniProt A8W7J6); assay: Laccase assay with inhibitors and ABTS kinetics, immobilized enzyme; assay type: biochemical; conditions: 1 h pre-incubation
T2 sequence (A8W7J6 17-513): T1 sequence (A8W7J6 17-513)

With `[N-]=[N+]=[N-]` [sodium azide] the IC50 (Free laccase) was 5 ± 0.5 µM and the IC50 [1] was 6 ± 0.3 µM.
